Experiments:
barnyardgrass [1] = assay: Test A preemergence; format: in vivo, Echinochloa crus-galli; conditions: preemergence; for Barnyardgrass plant response rating (0 to 100 scale, 0 is no effect, 100 is complete control): visual injury approx. 10 days after treatment
In short: (§1)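 Both timings tested concurrently in loam/sand soil: preemergence by directed soil spray, postemergence on plants of 2–10 cm at the one- to two-leaf stage. Greenhouse holding period was approximately 10 days before visual injury assessment (0–100, 0 = no effect).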

kochia [2] = assay: Test A preemergence; format: in vivo, Kochia scoparia; conditions: for Kochia plant response rating (0 to 100 scale): visual injury approx. 10 days after treatment
Description: (§2) Seeds of plant species selected from barnyardgrass (Echinochloa crus-galli), kochia (Kochia scoparia), common ragweed (Ambrosia elation), Italian ryegrass (Lolium multiflorum), crabgrass, large (large crabgrass, Digitaria sanguinalis), foxtail, giant (giant foxtail, Setaria faberii), morningglory (Ipomoea spp.), pigweed (redroot pigweed, Amaranthus retroflexus), velvetleaf (Abutilon theophrasti), wheat (Triticum aestivum), and corn (Zea mays) were planted into a blend of loam soil and sand and treated preemergence with a directed soil spray using test chemicals formulated in a non-phytotoxic solvent mixture which included a surfactant.
(§3) At the same time, plants selected from these crop and weed species and also blackgrass (Alopecurus myosuroides), and galium (catchweed bedstraw, Galium aparine) were planted in pots containing the same blend of loam soil and sand and treated with postemergence applications of test chemicals formulated in the same manner. Plants ranged in height from 2 to 10 cm and were in the one- to two-leaf stage for the postemergence treatment. Treated plants and untreated controls were maintained in a greenhouse for approximately 10 days, after which time all treated plants were compared to untreated controls and visually evaluated for injury. Plant response ratings, summarized in Table A, are based on a 0 to 100 scale where 0 is no effect and 100 is complete control. A dash (-) response means no test result.

common ragweed [3] = assay: Test A preemergence; format: in vivo, Ambrosia elation; conditions: for Common Ragweed plant response rating (0 to 100 scale): visual injury approx. 10 days after treatment
Description: as §2, §3

Italian ryegrass [4] = assay: Test A preemergence; format: in vivo, Lolium multiflorum; conditions: for Italian Ryegrass plant response rating (0 to 100 scale): visual injury approx. 10 days after treatment
Description: as §2, §3

foxtail, giant [5] = assay: Test A preemergence; format: in vivo, Setaria faberii; conditions: preemergence; for Foxtail, Giant plant response rating (0 to 100 scale): visual injury approx. 10 days after treatment
In short: as §1

pigweed [6] = assay: Test A preemergence; format: in vivo, Amaranthus retroflexus; conditions: preemergence; for Pigweed plant response rating (0 to 100 scale): visual injury approx. 10 days after treatment
In short: as §1

barnyardgrass [7] = assay: Test A postemergence; format: in vivo, Echinochloa crus-galli
In short: as §1

kochia [8] = assay: Test A postemergence; format: in vivo, Kochia scoparia
Description: as §2, §3

common ragweed [9] = assay: Test A postemergence; format: in vivo, Ambrosia elation
Description: as §2, §3

Italian ryegrass [10] = assay: Test A postemergence; format: in vivo, Lolium multiflorum
Description: as §2, §3

foxtail, giant [11] = assay: Test A postemergence; format: in vivo, Setaria faberii
In short: as §1

pigweed [12] = assay: Test A postemergence; format: in vivo, Amaranthus retroflexus
In short: as §1

wheat = assay: Test A postemergence; format: in vivo, Triticum aestivum
In short: as §1

corn = assay: Test A postemergence; format: in vivo, Zea mays
In short: as §1

blackgrass = assay: Test A postemergence; format: in vivo, Alopecurus myosuroides
Description: as §2, §3

galium = assay: Test A postemergence; format: in vivo, Galium aparine
Description: as §2, §3

rice = assay: Test B flood; format: in vivo, Oryza sativa; conditions: 250 g ai/ha, visual rating on 0 to 100 scale (0 no effect, 100 complete control), 13 to 15 days
In short: (§4)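 Each compound is applied to the floodwater of pots holding 2-leaf seedlings, water standing 3 cm over the soil throughout. Plants stay in a greenhouse 13 to 15 days before visual scoring against controls from 0 (no effect) to 100 (complete control).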

sedge, umbrella = assay: Test B flood; format: in vivo, Cyperus difformis; conditions: 250 g ai/ha, visual rating on 0 to 100 scale (0 no effect, 100 complete control), 13 to 15 days
In short: as §4

ducksalad = assay: Test B flood; format: in vivo, Heteranthera limosa; conditions: 250 g ai/ha, visual rating on 0 to 100 scale (0 no effect, 100 complete control), 13 to 15 days
In short: as §4

barnyardgrass [13] = assay: Test B flood; format: in vivo, Echinochloa crus-galli; conditions: 250 g ai/ha, visual rating on 0 to 100 scale (0 no effect, 100 complete control), 13 to 15 days
In short: as §4

[14] = 125 g ai/ha, visual injury, 0 to 100 scale, approx. 10 days
[15] = 500 g ai/ha, visual injury after approx. 10 days, 0 to 100 scale (0 no effect, 100 complete control)
[16] = Postemergence, 500 g ai/ha, 0 to 100 scale (0 no effect, 100 complete control)
[17] = postemergence, 125 g ai/ha, about 10 days, visual rating on 0 to 100 scale (0 no effect, 100 complete control)
[18] = Postemergence, 125 g ai/ha, 0 to 100 scale, 0 no effect, 100 complete control

SMILES: CCc1cc(C(=O)NCC(F)(F)F)nn1Cc1cc(C(F)(F)F)no1 [Compound 123]
- Barnyardgrass plant response rating (barnyardgrass [1]; [14]): 0
- Barnyardgrass plant response rating (barnyardgrass [1]; [15]): 100
- Kochia plant response rating (kochia [2]; [14]): 10
- Kochia plant response rating (kochia [2]; [15]): 100
- Common Ragweed plant response rating (common ragweed [3]; [14]): 10
- Common Ragweed plant response rating (common ragweed [3]; [15]): 50
- Italian Ryegrass plant response rating (Italian ryegrass [4]; [14]): 0
- Italian Ryegrass plant response rating (Italian ryegrass [4]; [15]): 30
- Foxtail, Giant plant response rating (foxtail, giant [5]; [14]): 20
- Foxtail, Giant plant response rating (foxtail, giant [5]; [15]): 100
- Pigweed plant response rating (pigweed [6]; [14]): 70
- Pigweed plant response rating (pigweed [6]; [15]): 100
- Barnyardgrass plant response rating (barnyardgrass [7]; [16]): 60
- Barnyardgrass plant response rating (barnyardgrass [7]; [17]): 0
- Kochia plant response rating (kochia [8]; [16]): 90
- Kochia plant response rating (kochia [8]; [17]): 50
- Common Ragweed plant response rating (common ragweed [9]; [16]): 40
- Common Ragweed plant response rating (common ragweed [9]; [17]): 10
- Italian Ryegrass plant response rating (Italian ryegrass [10]; [16]): 30
- Italian Ryegrass plant response rating (Italian ryegrass [10]; [17]): 10
- Foxtail, Giant plant response rating (foxtail, giant [11]; [16]): 90
- Foxtail, Giant plant response rating (foxtail, giant [11]; [17]): 0
- Pigweed plant response rating (pigweed [12]; [16]): 100
- Pigweed plant response rating (pigweed [12]; [17]): 70
- Wheat plant response rating (wheat; [16]): 10
- Wheat plant response rating (wheat; [17]): 0
- Corn plant response rating (corn; [16]): 60
- Corn plant response rating (corn; [17]): 20
- Blackgrass plant response rating (blackgrass; [16]): 50
- Blackgrass plant response rating (blackgrass; [17]): 10
- Galium plant response rating (galium; [16]): 80
- Galium plant response rating (galium; [17]): 10
- Plant response rating, Rice (rice): 10
- Plant response rating, Sedge, Umbrella (sedge, umbrella): 60
- Plant response rating, Ducksalad (ducksalad): 60
- Plant response rating, Barnyardgrass (barnyardgrass [13]): 20

SMILES: CCc1cc(C(=O)NC2CC2)nn1Cc1cc(C(F)(F)F)no1 [Compound 124]
- Barnyardgrass plant response rating (barnyardgrass [1]; [14]): 0
- Barnyardgrass plant response rating (barnyardgrass [1]; [15]): 100
- Kochia plant response rating (kochia [2]; [14]): 20
- Kochia plant response rating (kochia [2]; [15]): 90
- Common Ragweed plant response rating (common ragweed [3]; [14]): 10
- Common Ragweed plant response rating (common ragweed [3]; [15]): 40
- Italian Ryegrass plant response rating (Italian ryegrass [4]; [14]): 0
- Italian Ryegrass plant response rating (Italian ryegrass [4]; [15]): 20
- Foxtail, Giant plant response rating (foxtail, giant [5]; [14]): 20
- Foxtail, Giant plant response rating (foxtail, giant [5]; [15]): 100
- Pigweed plant response rating (pigweed [6]; [14]): 20
- Pigweed plant response rating (pigweed [6]; [15]): 100
- Barnyardgrass plant response rating (barnyardgrass [7]; [16]): 70
- Barnyardgrass plant response rating (barnyardgrass [7]; [17]): 0
- Kochia plant response rating (kochia [8]; [16]): 90
- Kochia plant response rating (kochia [8]; [17]): 50
- Common Ragweed plant response rating (common ragweed [9]; [16]): 30
- Common Ragweed plant response rating (common ragweed [9]; [17]): 20
- Italian Ryegrass plant response rating (Italian ryegrass [10]; [16]): 30
- Italian Ryegrass plant response rating (Italian ryegrass [10]; [17]): 10
- Foxtail, Giant plant response rating (foxtail, giant [11]; [16]): 90
- Foxtail, Giant plant response rating (foxtail, giant [11]; [17]): 0
- Pigweed plant response rating (pigweed [12]; [16]): 100
- Pigweed plant response rating (pigweed [12]; [17]): 30
- Wheat plant response rating (wheat; [16]): 0
- Wheat plant response rating (wheat; [17]): 0
- Corn plant response rating (corn; [16]): 40
- Corn plant response rating (corn; [17]): 10
- Blackgrass plant response rating (blackgrass; [16]): 60
- Blackgrass plant response rating (blackgrass; [17]): 10
- Galium plant response rating (galium; [16]): 80
- Galium plant response rating (galium; [17]): 10
- Plant response rating, Rice (rice): 20
- Plant response rating, Sedge, Umbrella (sedge, umbrella): 20
- Plant response rating, Ducksalad (ducksalad): 30
- Plant response rating, Barnyardgrass (barnyardgrass [13]): 10

SMILES: CCONC(=O)c1cc(CC)n(Cc2cc(OC(F)F)nn2C)n1 [Compound 207]
- Barnyardgrass plant response rating (0 to 100 scale, 0 is no effect, 100 is complete control) (barnyardgrass [1]; 125 g ai/ha): 0
- Barnyardgrass plant response rating (barnyardgrass [1]; [15]): 90
- Kochia plant response rating (0 to 100 scale) (kochia [2]; 125 g ai/ha): 30
- Common Ragweed plant response rating (0 to 100 scale) (common ragweed [3]; 125 g ai/ha): 0
- Common Ragweed plant response rating (common ragweed [3]; [15]): 40
- Italian Ryegrass plant response rating (0 to 100 scale) (Italian ryegrass [4]; 125 g ai/ha): 0
- Italian Ryegrass plant response rating (Italian ryegrass [4]; [15]): 20
- Foxtail, Giant plant response rating (0 to 100 scale) (foxtail, giant [5]; 125 g ai/ha): 0
- Foxtail, Giant plant response rating (foxtail, giant [5]; [15]): 20
- Pigweed plant response rating (0 to 100 scale) (pigweed [6]; 125 g ai/ha): 50
- Barnyardgrass plant response rating (barnyardgrass [7]; [16]): 80
- Barnyardgrass plant response rating (barnyardgrass [7]; [17]): 0
- Kochia plant response rating (kochia [8]; [18]): 30
- Kochia plant response rating (kochia [8]; [16]): 60
- Common Ragweed plant response rating (common ragweed [9]; [16]): 30
- Common Ragweed plant response rating (common ragweed [9]; [17]): 0
- Italian Ryegrass plant response rating (Italian ryegrass [10]; [18]): 0
- Italian Ryegrass plant response rating (Italian ryegrass [10]; [16]): 50
- Foxtail, Giant plant response rating (foxtail, giant [11]; [16]): 60
- Foxtail, Giant plant response rating (foxtail, giant [11]; [17]): 0
- Pigweed plant response rating (pigweed [12]; [18]): 60
- Pigweed plant response rating (pigweed [12]; [16]): 100
- Wheat plant response rating (wheat; [18]): 10
- Wheat plant response rating (wheat; [16]): 20
- Corn plant response rating (corn; [16]): 60
- Corn plant response rating (corn; [17]): 30
- Blackgrass plant response rating (blackgrass; [16]): 60
- Blackgrass plant response rating (blackgrass; [17]): 0
- Galium plant response rating (galium; [18]): 40
- Galium plant response rating (galium; [16]): 80
- Plant response rating, Rice (rice): 0
- Plant response rating, Sedge, Umbrella (sedge, umbrella): 0
- Plant response rating, Ducksalad (ducksalad): 0
- Plant response rating, Barnyardgrass (barnyardgrass [13]): 0

SMILES: CCONC(=O)c1cc(CC)n(Cc2cc(C(F)(F)F)nn2C(C)C)n1 [Compound 208]
- Barnyardgrass plant response rating (0 to 100 scale, 0 is no effect, 100 is complete control) (barnyardgrass [1]; 125 g ai/ha): 0
- Barnyardgrass plant response rating (barnyardgrass [1]; [15]): 10
- Kochia plant response rating (0 to 100 scale) (kochia [2]; 125 g ai/ha): 10
- Common Ragweed plant response rating (0 to 100 scale) (common ragweed [3]; 125 g ai/ha): 0
- Common Ragweed plant response rating (common ragweed [3]; [15]): 10
- Italian Ryegrass plant response rating (0 to 100 scale) (Italian ryegrass [4]; 125 g ai/ha): 0
- Italian Ryegrass plant response rating (Italian ryegrass [4]; [15]): 10
- Foxtail, Giant plant response rating (0 to 100 scale) (foxtail, giant [5]; 125 g ai/ha): 0
- Foxtail, Giant plant response rating (foxtail, giant [5]; [15]): 30
- Pigweed plant response rating (0 to 100 scale) (pigweed [6]; 125 g ai/ha): 20
- Barnyardgrass plant response rating (barnyardgrass [7]; [16]): 10
- Barnyardgrass plant response rating (barnyardgrass [7]; [17]): 0
- Kochia plant response rating (kochia [8]; [18]): 20
- Kochia plant response rating (kochia [8]; [16]): 50
- Common Ragweed plant response rating (common ragweed [9]; [16]): 20
- Common Ragweed plant response rating (common ragweed [9]; [17]): 0
- Italian Ryegrass plant response rating (Italian ryegrass [10]; [18]): 0
- Italian Ryegrass plant response rating (Italian ryegrass [10]; [16]): 0
- Foxtail, Giant plant response rating (foxtail, giant [11]; [16]): 10
- Foxtail, Giant plant response rating (foxtail, giant [11]; [17]): 0
- Pigweed plant response rating (pigweed [12]; [18]): 40
- Pigweed plant response rating (pigweed [12]; [16]): 80
- Wheat plant response rating (wheat; [18]): 0
- Wheat plant response rating (wheat; [16]): 0
- Corn plant response rating (corn; [16]): 10
- Corn plant response rating (corn; [17]): 0
- Blackgrass plant response rating (blackgrass; [16]): 10
- Blackgrass plant response rating (blackgrass; [17]): 0
- Galium plant response rating (galium; [18]): 20
- Galium plant response rating (galium; [16]): 50
- Plant response rating, Rice (rice): 0
- Plant response rating, Sedge, Umbrella (sedge, umbrella): 0
- Plant response rating, Ducksalad (ducksalad): 0
- Plant response rating, Barnyardgrass (barnyardgrass [13]): 0

From patent publication US20150105252A1, “SUBSTITUTED PYRAZOLES AS HERBICIDES” (E I DU PONT DE NEMOURS AND COMPANY, priority 2013, published 2015)
